Source: ChEMBL document CHEMBL1201862, “PubChem BioAssay data set” (2004)
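Cells were grown in 96-well plates and exposed to each compound for 48 hours at five concentrations; endpoints were interpolated linearly between bracketing concentrations, or set to the highest concentration if not reached. The concentration for 50% growth inhibition is given as GI50.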 Calls of active or inactive are those of the source. Rule as the data show it: active = GI50 up to about 1.1 µM and inactive = higher.

Legend:
Assay in all cases: inhibition of tumour cell growth, NCI panel, 48 h
SF-539 = tested on: SF-539
MDA-N = tested on: MDA-N
Hs-578T = tested on: Hs-578T
SNB-19 = tested on: SNB-19
SK-MEL-2 = tested on: SK-MEL-2
OVCAR-5 = tested on: OVCAR-5
A549 = tested on: A549
OVCAR-4 = tested on: OVCAR-4
ACHN = tested on: ACHN
CCRF-CEM = tested on: CCRF-CEM
SR = tested on: SR
UACC-62 = tested on: UACC-62
NCI-H460 = tested on: NCI-H460
786-0 = tested on: 786-0
OVCAR-3 = tested on: OVCAR-3
NCI-H226 = tested on: NCI-H226
LOX IMVI = tested on: LOX IMVI
EKVX = tested on: EKVX
OVCAR-8 = tested on: OVCAR-8
CAKI-1 = tested on: CAKI-1

Measured: GI50

Clc1ccc(-c2cn3c(nc4ccccc43)c(/C=C/c3cccs3)n2)cc1
inactive: SF-539 > 100 µM | MDA-N > 100 µM | Hs-578T 43.8 µM | SNB-19 > 100 µM | SK-MEL-2 41.6 µM | OVCAR-5 > 100 µM | A549 > 100 µM | OVCAR-4 34.7 µM | ACHN > 100 µM | CCRF-CEM 45 µM | SR 5.09 µM | UACC-62 > 100 µM | NCI-H460 67.8 µM | 786-0 > 100 µM | OVCAR-3 > 100 µM | NCI-H226 > 100 µM | LOX IMVI > 100 µM

C[C@]12C[C@H](O)[C@H]3[C@@H](CCC4=CC(=O)CC[C@@]43C)[C@@H]1CC[C@@H]2c1csc(-c2ccccc2)n1
inactive: SF-539 62.5 µM | MDA-N > 80.7 µM | Hs-578T 30.1 µM | SNB-19 29.6 µM | SK-MEL-2 > 34 µM | OVCAR-5 > 100 µM | A549 11.2 µM | OVCAR-4 23.2 µM | EKVX 21 µM | OVCAR-8 35.8 µM | ACHN > 50.6 µM | SR 3.21 µM | UACC-62 29.4 µM | NCI-H460 5.85 µM | CAKI-1 38.4 µM | 786-0 25.2 µM | OVCAR-3 > 22.4 µM | NCI-H226 > 58.1 µM | LOX IMVI > 58.3 µM

C=C(C(=O)O)[C@@H]1C[C@@H](OC(C)=O)[C@]2(C)CC/C=C(\C)CCC[C@H](C)[C@H](O)[C@@H]1O2
inactive: SF-539 18 µM | MDA-N 24.5 µM | Hs-578T 49.9 µM | SK-MEL-2 71.8 µM | OVCAR-5 > 100 µM | A549 43 µM | OVCAR-4 > 100 µM | EKVX 45.5 µM | OVCAR-8 27.5 µM | ACHN 55.7 µM | CCRF-CEM 22.4 µM | SR 24.3 µM | UACC-62 47.8 µM | NCI-H460 66.4 µM | CAKI-1 71 µM | 786-0 44.5 µM | OVCAR-3 37.4 µM | NCI-H226 14.9 µM | LOX IMVI 30.3 µM

Cc1cc(S(=O)(=O)NC2=Nc3ccccc3C(c3ccccc3)N2)c(S)cc1Cl (stereo unspecified)
inactive: SF-539 > 100 µM | MDA-N 78 µM | Hs-578T > 100 µM | SNB-19 34 µM | OVCAR-5 > 100 µM | A549 18.2 µM | OVCAR-4 13.6 µM | EKVX > 100 µM | OVCAR-8 > 100 µM | ACHN > 100 µM | CCRF-CEM 32.6 µM | SR 23.3 µM | UACC-62 > 100 µM | NCI-H460 12.9 µM | CAKI-1 45.8 µM | 786-0 8.2 µM | OVCAR-3 > 100 µM | NCI-H226 17.4 µM | LOX IMVI 39.3 µM

C=C(C)C[C@H](Sc1nc2ccccc2s1)[C@H](C)O
inactive: SF-539 41.8 µM | MDA-N 37 µM | Hs-578T 41.3 µM | SNB-19 > 100 µM | SK-MEL-2 23.1 µM | OVCAR-5 65.8 µM | A549 50.5 µM | OVCAR-4 70.1 µM | EKVX 32.4 µM | OVCAR-8 34.3 µM | ACHN > 100 µM | SR 30.3 µM | UACC-62 52.7 µM | NCI-H460 45.3 µM | CAKI-1 70.1 µM | 786-0 40.8 µM | OVCAR-3 18.8 µM | NCI-H226 22.5 µM | LOX IMVI 39.4 µM

COC(=O)C1[C@H](C(=O)OC)C1(Br)CBr (stereo partly specified)
inactive: SF-539 > 100 µM | MDA-N > 100 µM | Hs-578T > 100 µM | SNB-19 > 100 µM | SK-MEL-2 > 100 µM | OVCAR-5 > 100 µM | A549 > 100 µM | OVCAR-4 > 100 µM | EKVX > 100 µM | OVCAR-8 > 100 µM | ACHN > 100 µM | SR > 100 µM | UACC-62 > 100 µM | NCI-H460 > 100 µM | CAKI-1 > 100 µM | 786-0 > 100 µM | OVCAR-3 > 100 µM | NCI-H226 > 100 µM | LOX IMVI > 100 µM

Nc1ncnc2c1nc(-c1ccccc1)n2C1OC(CO)C(O)C1O (stereo unspecified)
inactive: SF-539 > 100 µM | MDA-N > 100 µM | Hs-578T > 100 µM | SNB-19 > 100 µM | SK-MEL-2 > 100 µM | OVCAR-5 > 100 µM | A549 > 100 µM | OVCAR-4 > 100 µM | EKVX > 100 µM | OVCAR-8 > 100 µM | ACHN > 100 µM | SR > 100 µM | UACC-62 > 100 µM | NCI-H460 > 100 µM | CAKI-1 > 100 µM | 786-0 > 100 µM | OVCAR-3 > 100 µM | NCI-H226 > 100 µM | LOX IMVI > 100 µM
